Results: PMC12467234, “Label-Free and Ultrasensitive APE1 Detection Based on Hybridization Chain Reaction Combined with G-Quadruplex” (Biomolecules, 2025)
Where two headings read alike, the source gives them in different places.

Target: T1, Apurinic/apyrimidinic endonuclease 1 (APE1) (Homo sapiens, UniProt P27695)
T1 construct: gene APEX1
Experiment: fluorescent HCR/G-quadruplex-ThT assay of AP-site cleavage by purchased APE1; also in cell lysates
Format: biochemical

T1 sequence (P27695 2-318): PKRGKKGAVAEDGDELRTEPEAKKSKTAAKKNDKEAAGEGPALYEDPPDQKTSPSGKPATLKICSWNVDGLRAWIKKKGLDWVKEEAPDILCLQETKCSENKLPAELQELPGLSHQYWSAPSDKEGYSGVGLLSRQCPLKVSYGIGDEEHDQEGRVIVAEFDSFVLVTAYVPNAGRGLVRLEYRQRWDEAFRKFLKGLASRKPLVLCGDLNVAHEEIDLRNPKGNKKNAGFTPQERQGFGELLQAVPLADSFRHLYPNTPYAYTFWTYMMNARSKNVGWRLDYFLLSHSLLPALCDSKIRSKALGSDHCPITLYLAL

Row | IC50 (read-out: IC50) | Compound | IC50
1 | – | O=C(O)c1cc2cccc([N+](=O)[O-])c2[nH]1 [NCA, 7-nitroindole-2-carboxylic acid] | ~3.5 µM
2 | ~75 µM | CO/N=C(\C(=O)N[C@@H]1C(=O)N2C(C(=O)O)=C(COC(C)=O)CS[C@H]12)c1csc(N)n1 [cefotaxime sodium] | –
